# Conditions: Surf. Brij 35P 2.5%, lipid 90H 1.0%, co-surf. S LPC ca. 0.01% (as SL 80-3 0.05%), active agent 0.10%
# Procedure: A stock emulsion of co-surfactant, lipid and active agent was prepared at double the desired final concentration. Co-surfactant was dissolved in water while heating (approximately 60° C.) and stirring, with the conditions maintained for approximately 15 further minutes before the mixture was homogenised (approximately 1 minute at 13,000 RPM, POLYTRON PT 3100 Homogeniser). Lipid was then added gradually, followed by continued stirring and heating until a uniform emulsion is formed. After approximately 45 minutes the mixture was then homogenised (approximately 3 minute at 15,000 RPM). The temperature was then brought to around 50° C. before the active component was added slowly under stirring until a uniform emulsion was present. The final emulsion was then homogenised (approximately 1 minute, ULTRA-TURRAX®-Janke & Kunkel).
# A stock solution of surfactant was prepared at double (i.e. 5%) the desired final concentration of 2.5%, by mixing of the surfactant with the appropriate volume of water.
# Macromolecular complexes incorporating active agents were then prepared by the dropwise addition of the warm lipid containing emulsion to an equal volume of surfactant solution while stirring and heating 50° C.
# Samples were then allowed to cool to room temperature before being analyzed.
# For a quantitative analysis of the clarity of aqueous solutions of surfactant, lipid and active, samples were examined using a turbidity meter (Nephla, from Hach-Lange). The turbidity meter was calibrated prior to use, with two known standards (0 and 40 FNU).
row,Structure (SMILES),Turbidity (FNU)
1,NC[C@@H]1O[C@H](O[C@H]2[C@@H](O)[C@H](O[C@@H]3[C@@H](O)[C@H](N)C[C@H](N)[C@H]3O[C@H]3O[C@H](CN)[C@@H](O)[C@H](O)[C@H]3N)O[C@@H]2CO)[C@H](N)[C@@H](O)[C@@H]1O.O=S(=O)(O)O [Neomycin sulphate],19.76
2,COc1ccc(C(=O)c2ccccc2)c(O)c1 [Eusolex 4360],10.02
3,O=C1OC2(c3cc(Br)c(O)c(Br)c3Oc3c2cc(Br)c(O)c3Br)c2c(Cl)c(Cl)c(Cl)c(Cl)c21 [D&C Red No. 27],16.44
4,COc1ccc2cc([C@H](C)C(=O)O)ccc2c1 [Naproxen],14.99
5,CCCCC(=O)O[C@]1(C(=O)CO)[C@@H](C)C[C@H]2[C@@H]3CCC4=CC(=O)C=C[C@]4(C)[C@@]3(F)[C@@H](O)C[C@@]21C [Betamethasone 17-valerate],19.24
6,Nc1ccc(C(=O)O)cc1 [PABA],8.81
7,CC(C)CCC[C@@H](C)[C@H]1CC[C@H]2[C@@H]3CC=C4C[C@@H](O)CC[C@]4(C)[C@H]3CC[C@]12C [Cholesterol],10.91
8,C[C@@H]1[C@H](O)[C@@H](C)/C=C/C=C/CC/C=C/C=C/C=C/C=C/C(O[C@H]2O[C@H](C)[C@@H](O)[C@H](N)[C@@H]2O)CC2O[C@](O)(CC(O)C(O)CCC(O)CC(O)CC(O)CC(=O)O[C@H]1C)CC(O)C2C(=O)O (some centres unmarked) [Nystatin],21.3
9,O=C(CCCCc1ccc2c(c1)OCO2)N1CCCCC1 [Cosmoperine],6.38
10,CC12CCC(CC1=O)C2(C)C (centres unmarked) [Camphor (S-Black)],29.70
11,COc1ccc(C(=O)CC(=O)c2ccc(C(C)(C)C)cc2)cc1 [Avobenzene],52.9
12,CC(C)CCC[C@@H](C)[C@H]1CC[C@H]2[C@@H]3CC=C4C[C@@H](OS(=O)(=O)O)CC[C@]4(C)[C@H]3CC[C@]12C [Cholesterol sulphate],9.48
13,CC(Cc1ccc(O)c(O)c1)C(C)Cc1ccc(O)c(O)c1 (centres unmarked) [NDGA],40.5
14,CCCCCCCCCCCCCCCCCCOC(=O)[C@@]1(C)CC[C@]2(C)CC[C@]3(C)C(=CC(=O)[C@@H]4[C@@]5(C)CC[C@H](O)C(C)(C)[C@@H]5CC[C@]43C)[C@@H]2C1 [Stearyl glycrrhetinate],88.9
15,CC(C)CCC[C@@H](C)[C@H]1CC[C@H]2C3=CC=C4C[C@@H](O)CC[C@]4(C)[C@H]3CC[C@]12C [7-dehydrocholesterol],58.4

# Same assay, conditions: Surf. Brij 35P 2.5%, lipid 90H 1.0%, co-surf. S LPC ca. 0.01% (as SL 80-3 0.05%), active agent 0.20%
row,Structure (SMILES),Turbidity (FNU)
1,COC(=O)[C@@H]1[C@H]2C[C@H]3c4[nH]c5ccccc5c4CCN3C[C@@H]2CC[C@@H]1O.Cl [Yohimbine HCl USP HO],22.78

# Same assay, conditions: Surf. Brij 35P 2.5%, lipid 90H 1.0%, co-surf. S LPC ca. 0.01% (as SL 80-3 0.05%), active agent 0.25%
row,Structure (SMILES),Turbidity (FNU)
1,CC12CCC(CC1=O)C2(C)C (centres unmarked) [Camphor],26.80
2,Cc1cc(CC(C)CC(C)(C)C)n(O)c(=O)c1.NCCO (centres unmarked) [Octopirox ®],9.10
3,CC(C)c1c(O)ccc2c1CC[C@H]1C(C)(C)CCC[C@]21C [Totarol ®],12.89
4,CC1CCC(C(C)C)C(OC(=O)[C@@H]2CCC(=O)N2)C1 (some centres unmarked) [Questice CQ U/A],46.81
5,COC(=O)[C@@H]1[C@H]2C[C@H]3c4[nH]c5ccccc5c4CCN3C[C@@H]2CC[C@@H]1O.Cl [Yohimbine HCl USP],13.42

# Same assay, conditions: Surf. Brij 35P 2.5%, lipid 90H 1.0%, co-surf. S LPC ca. 0.01% (as SL 80-3 0.05%), active agent 0.80%
row,Structure (SMILES),Turbidity (FNU)
1,Cc1cc(CC(C)CC(C)(C)C)n(O)c(=O)c1.NCCO (centres unmarked) [Octopirox ®],6.91

# Same assay, conditions: Surf. Brij 35P 2.5%, lipid 90H 1%, co-surf. S LPC ca. 0.01% (as SL 80-3 0.05%), active agent […]
row,Structure (SMILES),Turbidity (FNU)
1,CC12CCC(/C(=C\c3ccccc3)C1=O)C2(C)C (centres unmarked) [Unisol S-22],14.59

# Same assay, conditions: Surf. Volpo L23 2.5%, lipid 90H 1.0%, co-surf. S LPC ca. 0.01% (as SL 80-3 0.05%), active agent 0.10%
row,Structure (SMILES),Turbidity (FNU)
1,O=C1OC2(c3cc(Br)c(O)c(Br)c3Oc3c2cc(Br)c(O)c3Br)c2c(Cl)c(Cl)c(Cl)c(Cl)c21 [D&C Red No. 27],21.85

# Same assay, conditions: Surf. Volpo L23 2.5%, lipid 90H 1.0%, co-surf. S LPC ca. 0.01% (as SL 80-3 0.05%), active agent 0.25%
row,Structure (SMILES),Turbidity (FNU)
1,CCCCCCCCCCCCOC(=O)[C@@H]1CCC(=O)N1 [Laurydone ®],61.70
2,Cc1c(C2(c3cc(Br)c(O)c(Br)c3C)OS(=O)(=O)c3ccccc32)cc(Br)c(O)c1Br [Bromocresol Green],19.40

# From patent US20100062067A1, “COMPOSITIONS COMPRISING MACROMOLECULAR ASSEMBLIES OF LIPID AND SURFACTANT” (MALVERN COSMECEUTICS LIMITED, priority 2006, published 2010)
